What was measured:
βTC6 insulinoma cell [1] = test: Cell viability assay in βTC6 insulinoma cell line; assay type: cell-based; conditions: for Cell viability: βTC6, control 100.00
Text: Cell Viability Assay in βTC6 Insulinoma Cell Lime Following—

βTC6 insulinoma cell [2] = test: Anti-oxidant activity in βTC6 insulinoma cell challenged with H2O2; assay type: cell-based; parameters: Anti-oxidant activity, cells challenged with H2O2: unit not given here; conditions: for Anti-oxidant activity, cells challenged with H2O2: βTC6
Text: Anti-Oxidant Activity in βTC6 Insulinoma Cell Challenged with H2O2 Berberin and Quercetin—
Anti-Oxidant Activity in βTC6 Insulinoma Cell Challenged with H2O2 Berberin and Palmatine—

3T3-L1 cells [3] = test: Anti-oxidant activity in 3T3-L1 cells challenged with H2O2; assay type: cell-based; parameters: Anti-oxidant activity, cells challenged with H2O2: scale not given here; conditions: for Anti-oxidant activity, cells challenged with H2O2: 3T3-L1; for protection against H2O2 induced cellular oxidative damage: 3T3-L1 cells
Text: Anti-Oxidant Activity in 3T3-L1 Cells Challenged with H2O2 Berberin and Palmatine
Anti-Oxidant Activity in 3T3-L1 Cells Challenged with H2O2 Berberin and Quercetin

L6-myotubes = test: Anti-diabetic activity (glucose consumption) in L6-myotubes; assay type: cell-based; parameters: Anti-diabetic activity (glucose consumption): unit not given here; conditions: for Anti-diabetic activity (glucose consumption): L6-myotubes, control 1.00
[4] = tested on: nor-epinephrine, serotonin and dopamine in whole brain; conditions: mice; acute administration 5 mg/kg ip; cited from earlier work
3T3-L1 cells [5] = test: Cell viability assay in 3T3-L1 cells; conditions: for Cell viability: 3T3-L1, control 100.00
Aldose reductase = target: T1, Aldose reductase (Rattus norvegicus, UniProt P07943); test: Aldose reductase activity; assay type: in vivo, rats; conditions: H.G. animals; standard drug
T1 construct: from tissue; STZ-induced diabetic animals
Method: Before utilizing the test drug for human consumption the pre-clinical safety and efficacy profile of single plant candidate extract as well as in combined form was conducted following standard norms. […] The effect of test drug was assessed on glucose levels, insulin level, glycosylated hemoglobin, and pro-inflammatory cytokines, and the most important bio-marker neopterin including various neuro-psychological assessments. […] Aldose Reductase Activity and Glycation of Hemoglobin Following Test Formulation Treatment

Compound: COc1ccc2cc3[n+](cc2c1OC)CCc1cc2c(cc1-3)OCO2 [Berberin]
- Cell viability (βTC6 insulinoma cell [1]; 1 pM): 97.95 ± 1.12
- Cell viability (βTC6 insulinoma cell [1]; 10 pM): 96.99 ± 2.20
- Cell viability (βTC6 insulinoma cell [1]; 100 pM): 94.60 ± 2.45
- Cell viability (βTC6 insulinoma cell [1]; 1 nM): 90.89 ± 1.42
- Cell viability (βTC6 insulinoma cell [1]; 10 nM): 88.65 ± 2.60
- Cell viability (βTC6 insulinoma cell [1]; 100 nM): 86.30 ± 1.67
- Cell viability (βTC6 insulinoma cell [1]; 1 μM): 73.75 ± 2.90
- Cell viability (βTC6 insulinoma cell [1]; 10 μM): 67.89 ± 1.65
- toxicity to the cells (βTC6 insulinoma cell [1]; βTC6 insulinoma cells, 10 ng/ml): non-toxic
- Anti-oxidant activity, cells challenged with H2O2 (βTC6 insulinoma cell [2]; Co-incubated, 1 pM, control 55.54): 54.53 ± 1.67
- Anti-oxidant activity, cells challenged with H2O2 (βTC6 insulinoma cell [2]; Co-incubated, 1 pg/ml, control 55.64): 59.70 ± 2.00
- Anti-oxidant activity, cells challenged with H2O2 (βTC6 insulinoma cell [2]; Co-incubated, 10 pM, control 55.54): 54.79 ± 2.95
- Anti-oxidant activity, cells challenged with H2O2 (βTC6 insulinoma cell [2]; Co-incubated, 10 pg/ml, control 55.64): 64.14 ± 2.04
- Anti-oxidant activity, cells challenged with H2O2 (βTC6 insulinoma cell [2]; Co-incubated, 100 pg/ml, control 55.64): 67.40 ± 1.43
- Anti-oxidant activity, cells challenged with H2O2 (βTC6 insulinoma cell [2]; Co-incubated, 0.1 nM, control 55.54): 56.02 ± 2.82
- Anti-oxidant activity, cells challenged with H2O2 (βTC6 insulinoma cell [2]; Co-incubated, 1 nM, control 55.54): 59.80 ± 1.30
- Anti-oxidant activity, cells challenged with H2O2 (βTC6 insulinoma cell [2]; Co-incubated, 1 ng/ml, control 55.64): 76.57 ± 1.50
- Anti-oxidant activity, cells challenged with H2O2 (βTC6 insulinoma cell [2]; Co-incubated, 10 nM, control 55.54): 60.75 ± 2.16
- Anti-oxidant activity, cells challenged with H2O2 (βTC6 insulinoma cell [2]; Co-incubated, 10 ng/ml, control 55.64): 85.90 ± 2.00
- Anti-oxidant activity, cells challenged with H2O2 (βTC6 insulinoma cell [2]; Pre-incubate, 1 pg/ml, control 55.64): 61.60 ± 2.00
- Anti-oxidant activity, cells challenged with H2O2 (βTC6 insulinoma cell [2]; Pre-incubate, 10 pg/ml, control 55.64): 65.18 ± 1.98
- Anti-oxidant activity, cells challenged with H2O2 (βTC6 insulinoma cell [2]; Pre-incubate, 100 pg/ml, control 55.64): 67.05 ± 2.45
- Anti-oxidant activity, cells challenged with H2O2 (βTC6 insulinoma cell [2]; Pre-incubate, 1 ng/ml, control 55.64): 74.40 ± 1.40
- Anti-oxidant activity, cells challenged with H2O2 (βTC6 insulinoma cell [2]; Pre-incubate, 10 ng/ml, control 55.64): 77.69 ± 2.10
- Anti-oxidant activity, cells challenged with H2O2 (βTC6 insulinoma cell [2]; Pre-incubated, 1 pM, control 55.54): 57.52 ± 0.80
- Anti-oxidant activity, cells challenged with H2O2 (βTC6 insulinoma cell [2]; Pre-incubated, 10 pM, control 55.54): 58.90 ± 2.87
- Anti-oxidant activity, cells challenged with H2O2 (βTC6 insulinoma cell [2]; Pre-incubated, 0.1 nM, control 55.54): 60.12 ± 3.40
- Anti-oxidant activity, cells challenged with H2O2 (βTC6 insulinoma cell [2]; Pre-incubated, 1 nM, control 55.54): 61.70 ± 1.60
- Anti-oxidant activity, cells challenged with H2O2 (βTC6 insulinoma cell [2]; Pre-incubated, 10 nM, control 55.54): 64.20 ± 1.65
- anti-oxidant activity (βTC6 insulinoma cell [2]; βTC6 cells challenged with hydrogen peroxide): potent anti-oxidant activity
- protection against H2O2 induced cellular oxidative damage (βTC6 insulinoma cell [2]; βTC6 insulinoma cells): Mild Protection
- Anti-oxidant activity, cells challenged with H2O2 (3T3-L1 cells [3]; Co-incubated, 10 pM, control 50.00): 56.00 ± 3.35
- Anti-oxidant activity, cells challenged with H2O2 (3T3-L1 cells [3]; Co-incubated, 10 pg/ml, control 49.00): 53.00 ± 2.50
- Anti-oxidant activity, cells challenged with H2O2 (3T3-L1 cells [3]; Co-incubated, 100 pM, control 50.00): 58.96 ± 1.20
- Anti-oxidant activity, cells challenged with H2O2 (3T3-L1 cells [3]; Co-incubated, 100 pg/ml, control 49.00): 57.80 ± 2.50
- Anti-oxidant activity, cells challenged with H2O2 (3T3-L1 cells [3]; Co-incubated, 1 nM, control 50.00): 61.80 ± 1.80
- Anti-oxidant activity, cells challenged with H2O2 (3T3-L1 cells [3]; Co-incubated, 1 ng/ml, control 49.00): 65.15 ± 1.99
- Anti-oxidant activity, cells challenged with H2O2 (3T3-L1 cells [3]; Co-incubated, 10 nM, control 50.00): 63.00 ± 1.60
- Anti-oxidant activity, cells challenged with H2O2 (3T3-L1 cells [3]; Co-incubated, 100 nM, control 50.00): 63.38 ± 2.10
- Anti-oxidant activity, cells challenged with H2O2 (3T3-L1 cells [3]; Co-incubated, 100 ng/ml (first of two lines so printed, r7), control 49.00): 70.80 ± 3.25
- Anti-oxidant activity, cells challenged with H2O2 (3T3-L1 cells [3]; Co-incubated, 100 ng/ml (second line, r8), control 49.00): 77.50 ± 2.95
- Anti-oxidant activity, cells challenged with H2O2 (3T3-L1 cells [3]; Pre-incubated, 10 pM, control 50.00): 52.01 ± 2.80
- Anti-oxidant activity, cells challenged with H2O2 (3T3-L1 cells [3]; Pre-incubated, 10 pg/ml, control 49.00): 55.00 ± 2.00
- Anti-oxidant activity, cells challenged with H2O2 (3T3-L1 cells [3]; Pre-incubated, 100 pM, control 50.00): 55.76 ± 2.80
- Anti-oxidant activity, cells challenged with H2O2 (3T3-L1 cells [3]; Pre-incubated, 100 pg/ml, control 49.00): 58.00 ± 1.70
- Anti-oxidant activity, cells challenged with H2O2 (3T3-L1 cells [3]; Pre-incubated, 1 nM, control 50.00): 59.95 ± 2.10
- Anti-oxidant activity, cells challenged with H2O2 (3T3-L1 cells [3]; Pre-incubated, 1 ng/ml, control 49.00): 64.00 ± 1.90
- Anti-oxidant activity, cells challenged with H2O2 (3T3-L1 cells [3]; Pre-incubated, 10 nM, control 50.00): 61.13 ± 1.05
- Anti-oxidant activity, cells challenged with H2O2 (3T3-L1 cells [3]; Pre-incubated, 100 nM, control 50.00): 64.25 ± 2.30
- Anti-oxidant activity, cells challenged with H2O2 (3T3-L1 cells [3]; Pre-incubated, 100 ng/ml (first of two lines so printed, r7), control 49.00): 67.40 ± 3.70
- Anti-oxidant activity, cells challenged with H2O2 (3T3-L1 cells [3]; Pre-incubated, 100 ng/ml (second line, r8), control 49.00): 75.00 ± 4.15
- protection against H2O2 induced cellular oxidative damage (3T3-L1 cells [3]; comparison with positive standard): potent protection
- protection against H2O2 induced cellular oxidative damage (3T3-L1 cells [3]; pM-nM doses): mild protection
- Anti-diabetic activity (glucose consumption) (L6-myotubes; 1 nM): 1.38 ± 0.08
- Anti-diabetic activity (glucose consumption) (L6-myotubes; 5 nM): 1.78 ± 0.08
- Anti-diabetic activity (glucose consumption) (L6-myotubes; 25 nM): 1.98 ± 0.08
- Anti-diabetic activity (glucose consumption) (L6-myotubes; 125 nM): 2.30 ± 0.08
- Anti-diabetic activity (glucose consumption) (L6-myotubes; 625 nM): 2.50 ± 0.10
- glucose consumption (L6-myotubes; differentiated L6-myotubes, dose dependent): accelerated glucose consumption
- increased level of dopamine in whole brain [4]: 31%
- increased level of nor-epinephrine in whole brain [4]: 31%
- increased level of serotonin in whole brain [4]: 47%
- Cell viability (3T3-L1 cells [5]; 10 pM): 99.50 ± 1.50
- Cell viability (3T3-L1 cells [5]; 100 pM): 99.99 ± 2.80
- Cell viability (3T3-L1 cells [5]; 1 nM): 99.88 ± 0.91
- Cell viability (3T3-L1 cells [5]; 10 nM): 98.25 ± 1.20
- Cell viability (3T3-L1 cells [5]; 100 nM): 97.69 ± 1.09
- Cell viability (3T3-L1 cells [5]; 1 μM): 90.68 ± 2.05
- Cell viability (3T3-L1 cells [5]; 10 μM): 75.12 ± 2.85
- Cell viability (3T3-L1 cells [5]; 100 μM): 62.54 ± 4.20
- toxicity to the cell (3T3-L1 cells [5]; 3T3-L1 cells, 1 μM): non-toxic

Compound: CN(C)C(=N)N=C(N)N [Metformin]
- Aldose reductase (Aldose reductase): 2.60 ± 0.75 μM of NADPH oxidized/g of protein

From patent publication US10149879B2 (priority 2014, dated 2018)
